Oc1ccc(C2(c3ccc(O)cc3)CCCCC2)cc1
solubility (mole fraction)
Settings	in 1,4-dioxane	in THF	in acetone	in ethanol	in ethyl acetate	in isopropanol	in methanol	in n-butanol	in n-propanol
288.15 K	0.0609	0.182	0.0602	0.0073	0.0571	0.0053	0.012	0.012	0.032
293.15 K	0.0621	0.192	0.0652	0.0084	0.0681	0.0061	0.0129	0.0127	0.0355
298.15 K	0.0676	0.206	0.0756	0.0096	0.0769	0.0066	0.0162	0.0133	0.0437
303.15 K	0.0731	0.221	0.0931	0.0117	0.0951	0.0076	0.0208	0.0157	0.0563
308.15 K	0.0866	0.236	0.109	0.013	0.113	0.0089	0.0253	0.0184	0.0654
313.15 K	0.103	0.251	0.127	0.0152	0.136	0.0134	0.0342	0.0236	0.0789
318.15 K	0.116	0.268	0.152	0.017	0.15	0.0192	0.0428	0.028	0.0896
323.15 K	0.127	0.283	0.182	0.0186	0.176	0.0243	0.0547	0.0348	0.103
328.15 K	0.144	0.308	0.219	0.0202	0.199	0.0294	0.0685	0.0431	0.121

From BigSolDB 2.1
